Experimental data taken from patent US10966426B2, “Herbicidal compositions comprising phenylpyrimidines” (BASF SE, priority 2016, dated 2021).

Assays:
Format in all cases: in vivo
Avena fatua = assay: greenhouse post-emergence treatment, AVEFA; settings: Avena fatua, 480 h, 20 DAT
Outline: (§1)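 Plants were grown in pots of loamy sand with approximately 3.0% humus, either sown directly or transplanted as seedlings a few days before treatment, and sprayed with water-based treatments. They were kept at 10-25° C. or 20-35° C. depending on species and rated visually after 2 to 4 weeks on a 0–100 scale (100 = no emergence or complete destruction of above-ground parts).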

Helianthus annuus = assay: greenhouse post-emergence treatment, HELAN; settings: Helianthus annuus, 480 h, 20 DAT, flufenacet solo 125 gai/ha
Experimental: The culture containers used were plastic pots containing loamy sand with approximately 3.0% of humus as substrate. The seeds of the test plants were sown separately for each species.
For the post-emergence treatment, the test plants were grown to a plant height of from 3 to 15 cm, depending on the plant habit, and only then treated with the active compounds which had been suspended or emulsified in water. To this end, the test plants were either sown directly, and grown in the same containers, or they were first grown separately as seedlings and transplanted into the test containers a few days prior to treatment.
Depending on the species, the plants were kept at 10-25° C. and 20-35° C., respectively.
The test period extended over 2 to 4 weeks. During this time, the plants were tended and their response to the individual treatments was evaluated.
Evaluation was carried out using a scale from 0 to 100. 100 means no emergence of the plants, or complete destruction of at least the above-ground parts, and 0 means no damage or normal course of growth. A good herbicidal activity is given at values of at least 70, and very good herbicidal activity is given at values of at least 85.
The respective stated components A and B, and if appropriate, C were formulated as a 10% by weight strength emulsion concentrate and, with addition of the amount of solvent system, introduced into the spray liquor used for applying the active compound. In the examples, the solvent used was water.
In the examples below, using the method of S. R. Colby (1967) “Calculating synergistic and antagonistic responses of herbicide combinations”, Weeds 15, p. 22ff., the value E, which is expected if the activity of the individual active compounds is only additive, was calculated. E=X+Y−(X·Y/100) where X=effect in percent using herbicide A at an application rate a; • Y=effect in percent using herbicide B at application rate b; • E=expected effect (in %) of herbicide A+herbicide B at application rates a+b.

Lolium multiflorum = assay: greenhouse post-emergence treatment, LOLMU; settings: Lolium multiflorum, 480 h, 20 DAT, read-out: % activity
Outline: as §1

Stellaria media = assay: greenhouse pre-emergence treatment, STEME; settings: Stellaria media, 480 h, 20 DAT
Outline: (§2)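 Pre-emergence spray of compounds, alone or as combinations formulated as 10% emulsion concentrate in water, directly after sowing in loamy sand (~3.0% humus); pots hooded until rooting, kept at 10-25° C or 20-35° C per species for 2 to 4 weeks. Damage scored 0-100 (100 = no emergence/complete destruction); Colby expected value E=X+Y−(X·Y/100).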

Polygonum convolvulus [1] = assay: greenhouse pre-emergence treatment, POLCO; settings: Fallopia convolvulus, sc, 480 h, 20 DAT, POLCO, read-out: % activity
Outline: as §2

Polygonum convolvulus [2] = assay: greenhouse post-emergence treatment, POLCO; settings: Fallopia convolvulus, 480 h, 20 DAT; for inhibition at 500000 µg/mL (stock): sc, POLCO
Outline: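 Post-emergence greenhouse spray on 3–15 cm plants, sown direct or transplanted a few days before treatment. Scored visually on a 0–100 scale after 2 to 4 weeks; expected additive effect computed by Colby: E=X+Y−(X·Y/100).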

[3] = flufenacet SC 500 g/l solo 62.5 gai/ha
[4] = flufenacet SC 500 g/l solo 125 gai/ha

## CC(C)N(C(=O)COc1nnc(C(F)(F)F)s1)c1ccc(F)cc1 [flufenacet]
Avena fatua; flufenacet solo 31.25 gai/ha, read-out: % activity
  inhibition at 31.25 g/ha: 30%
Avena fatua; flufenacet solo 62.5 gai/ha
  inhibition at 62.5 g/ha: 65%
Avena fatua; flufenacet solo 125 gai/ha, read-out: % activity
  inhibition at 125 g/ha: 65%
Helianthus annuus
  inhibition at 125 g/ha: 30%
Lolium multiflorum; flufenacet solo 31.25 gai/ha
  inhibition at 31.25 g/ha: 20%
Lolium multiflorum; flufenacet solo 62.5 gai/ha
  inhibition at 62.5 g/ha: 50%
Lolium multiflorum; flufenacet solo 125 gai/ha
  inhibition at 125 g/ha: 85%
Lolium multiflorum; flufenacet solo 250 gai/ha
  inhibition at 250 g/ha: 85%
Stellaria media; flufenacet SC 500 g/l solo 15.6 gai/ha
  inhibition at 15.6 g/ha: 0%
Stellaria media; flufenacet SC 500 g/l solo 31.25 gai/ha
  inhibition at 31.25 g/ha: 0%
Stellaria media; [3]
  inhibition at 62.5 g/ha: 0%
Stellaria media; [4]
  inhibition at 125 g/ha: 0%
Polygonum convolvulus [1]; [3]
  inhibition at 62.5 g/ha: 0%
Polygonum convolvulus [1]; [4]
  inhibition at 125 g/ha: 0%
Polygonum convolvulus [2]; flufenacet solo 31.25 gai/ha
  inhibition at 31.25 g/ha: 0%
Polygonum convolvulus [2]; flufenacet solo 62.5 gai/ha
  inhibition at 62.5 g/ha: 30%
Polygonum convolvulus [2]; flufenacet solo 125 gai/ha
  inhibition at 125 g/ha: 30%
Polygonum convolvulus [2]; solo flufenacet (SC 500 g/l) 31.25 gai/ha
  inhibition at 500000 µg/mL (stock): 0%
Polygonum convolvulus [2]; solo flufenacet (SC 500 g/l) 62.5 gai/ha
  inhibition at 500000 µg/mL (stock): 30%
Polygonum convolvulus [2]; solo flufenacet (SC 500 g/l) 125 gai/ha
  inhibition at 500000 µg/mL (stock): 30%
Polygonum convolvulus [2]; solo flufenacet (SC 500 g/l) 250 gai/ha
  inhibition at 500000 µg/mL (stock): 50%
